Data published in publication PMC12165799, “Antimicrobial peptide developed with machine learning sequence optimization targets drug resistant Staphylococcus aureus in mice” (The Journal of Clinical Investigation, 2025).
In brackets after ≈: the same amount, converted by molar mass. Read-outs that look alike come from different tables or passages of the source.

What was measured:
[1] = test system: S. aureus MW2 biofilm formation; details: for Biofilm formation, biomass (crystal violet), percentage of untreated / Biofilm formation, live-cell viability (XTT), percentage of untreated: 24 hours
Description: 349 Prevention of S. aureus MW2 biofilm formation
350 We evaluated the ability of the citropin 1.1-derived peptides to inhibit biofilm formation
351 following an established protocol with modifications (5). In short, we prepared exponential
352 cultures of S. aureus MW2 (adjusted to OD600 = 0.01) in TSB medium (supplemented with 0.2%
353 glucose) from overnight cultures. We added 90 µl of the bacterial culture to 10 µl of serially diluted
354 10× peptide solution in flat-bottomed 96-well polystyrene microtiter plates (Cat no. Corning 3595,
We used TSB medium containing
356 bacteria with water as the positive control, while TSB media with sterile water served as the
357 negative control. After incubation, we carefully removed the TSB medium and washed the wells
358 with PBS (Gibco, MD, USA) to remove loosely attached planktonic cells. We quantified the
359 biomass by staining the biofilms with crystal violet following an established protocol and
360 quantitated the concentration of peptide that inhibits 50% of biofilm formation (MBIC50)(8). We
361 measured the live cell count of the biofilms using XTT dye [2,3-bis(2-methyloxy-4-nitro-5-
362 sulfophenyl)-2H-tertazolium-5-carboxanilide] (ATCC, VA, USA).

S. aureus isolates = assay: microbe, parasite or virus in culture; details: Staphylococcus aureus
Description: 305 Minimal inhibitory concentration (MIC) assay
306 To determine the minimum concentration of peptide that inhibits the growth of bacteria,
307 termed as the minimal inhibitory concentration (MIC), we used the broth microdilution method
308 described by the Clinical and Laboratory Standards Institute (4). We made serial dilutions of 10×
309 concentrated peptides (10 µl) in duplicate in 96-well plates (Cat no. 3595, Corning, NY, USA).
310 We added 90 µl of logarithmic-phase bacteria at 1 × 10^6 CFU/ml (in TSB medium) to the peptides
311 and then incubated the plates at 37°C for 18 hours. We determined the MIC using OD600
312 measurements taken on a Spectra Max i3x spectrophotometer (Molecular Devices, CA, USA).

TNFA, IL6, MCP1 = assay: Cytokine estimation in infected murine skin (prophylactic model); type: in vivo, mice; design: TNFA in murine skin / IL6 in murine skin / MCP1 in murine skin: unit not given here; details: 2% w/w
Description: 599 In vivo murine skin infection and treatment
600 We used a topical skin-abraded murine infection model with minor modifications to test
601 the in vivo efficacy of the CIT-8 peptide (25). We performed all mouse studies following the
602 protocol approved by the Institutional Animal Care and Use Committee. In brief, we anesthetized
603 female C57BL/6 mice (6 weeks) (Jackson Laboratory, Bar Harbor, ME, USA) with ketamine-
604 xylazine (90 mg/kg ketamine and 10 mg/kg xylazine) via intraperitoneal injection. We shaved the
605 dorsal side of the mice in the middle of the back (area=2 cm2). To disrupt skin integrity, we tape-
606 stripped with Tensoplast® seven times in succession, replacing the tape each time, resulting in
607 visibly damaged skin. We infected the damaged skin area with 1 × 10^7 CFU of S. aureus MW2
608 (exponential phase bacteria in PBS) with an inoculum of 50 µl using a pipette tip. Ten minutes
609 (prophylactic model) and 24 h (established model) after bacterial inoculation, we applied 30 mg
610 of 1 and 2% (w/w) CIT-8 ointment in a white petroleum jelly base (Cat no. 19-090-843, Fisher
611 Scientific, MA, USA) to the skin. We also included animal groups treated with only petroleum
612 jelly or with 2% commercial mupirocin ointment as negative and positive controls, respectively.
613 For pain management, we used the analgesic buprenorphine SR (0.05 mg/kg).
614 After 24 h of treatment, we euthanized the animals, separated the skin from the underlying
615 fascia and muscle tissue, and excised about 2 cm2 of skin from the infected area. We ground the
616 skin in 1ml of PBS buffer (Gibco, MD, USA). We serially diluted 100 µl of the solution in PBS
617 and plated it on Remel™ TSA plates (Fisher, MA, USA) to estimate viable colony counts after 18
618 h of incubation at 37 °C. Further, we added 10 µl of EDTA-Free, protease inhibitor cocktail Set III
619 (Millipore Sigma, MA, USA) to 500 µl of the ground skin PBS solution for cytokine estimation.
620 The Cytokine Core, LLC (Indianapolis, IN, USA) performed the cytokine concentration analysis

CN[C@H](CC(C)C)C(=O)N[C@H]1C(=O)N[C@@H](CC(N)=O)C(=O)N[C@H]2C(=O)N[C@H]3C(=O)N[C@H](C(=O)N[C@H](C(=O)O)c4cc(O)cc(O)c4-c4cc3ccc4O)[C@H](O)c3ccc(c(Cl)c3)Oc3cc2cc(c3O[C@@H]2O[C@H](CO)[C@@H](O)[C@H](O)[C@H]2O[C@H]2C[C@](C)(N)[C@H](O)[C@H](C)O2)Oc2ccc(cc2Cl)[C@H]1O [Vancomycin, reference compound]
Biofilm formation, biomass (crystal violet), percentage of untreated ([1]; 4 μg/ml, replicate 1): 8.955 | Biofilm formation, live-cell viability (XTT), percentage of untreated ([1]; 4 μg/ml, replicate 1): -0.6369 | Biofilm formation, biomass (crystal violet), percentage of untreated ([1]; 4 μg/ml, replicate 2): 10.0268 | Biofilm formation, live-cell viability (XTT), percentage of untreated ([1]; 4 μg/ml, replicate 2): -0.3259 | Biofilm formation, biomass (crystal violet), percentage of untreated ([1]; 4 μg/ml, replicate 3): 18.3626 | Biofilm formation, live-cell viability (XTT), percentage of untreated ([1]; 4 μg/ml, replicate 3): -0.3777 | Biofilm formation, biomass (crystal violet), percentage of untreated ([1]; 8 μg/ml, replicate 1): 8.8836 | Biofilm formation, live-cell viability (XTT), percentage of untreated ([1]; 8 μg/ml, replicate 1): -0.674 | Biofilm formation, biomass (crystal violet), percentage of untreated ([1]; 8 μg/ml, replicate 2): 11.1462 | Biofilm formation, live-cell viability (XTT), percentage of untreated ([1]; 8 μg/ml, replicate 2): -0.4592 | Biofilm formation, biomass (crystal violet), percentage of untreated ([1]; 8 μg/ml, replicate 3): 16.9574 | Biofilm formation, live-cell viability (XTT), percentage of untreated ([1]; 8 μg/ml, replicate 3): -0.4518 | Biofilm formation, biomass (crystal violet), percentage of untreated ([1]; 16 μg/ml, replicate 1): 9.955 | Biofilm formation, live-cell viability (XTT), percentage of untreated ([1]; 16 μg/ml, replicate 1): -0.5851 | Biofilm formation, biomass (crystal violet), percentage of untreated ([1]; 16 μg/ml, replicate 2): 11.9559 | Biofilm formation, live-cell viability (XTT), percentage of untreated ([1]; 16 μg/ml, replicate 2): -0.437 | Biofilm formation, biomass (crystal violet), percentage of untreated ([1]; 16 μg/ml, replicate 3): 14.6234 | Biofilm formation, live-cell viability (XTT), percentage of untreated ([1]; 16 μg/ml, replicate 3): -0.4148 | Biofilm formation, biomass (crystal violet), percentage of untreated ([1]; 32 μg/ml, replicate 1): 10.1935 | Biofilm formation, live-cell viability (XTT), percentage of untreated ([1]; 32 μg/ml, replicate 1): -0.4962 | Biofilm formation, biomass (crystal violet), percentage of untreated ([1]; 32 μg/ml, replicate 2): 10.384 | Biofilm formation, live-cell viability (XTT), percentage of untreated ([1]; 32 μg/ml, replicate 2): -0.5555 | Biofilm formation, biomass (crystal violet), percentage of untreated ([1]; 32 μg/ml, replicate 3): 13.4802 | Biofilm formation, live-cell viability (XTT), percentage of untreated ([1]; 32 μg/ml, replicate 3): -0.4073 | MIC (S. aureus isolates; MRSA, S. aureus JE2 (MRSA)): 1 µg/mL (≈ 0.69 µM) | MIC (S. aureus isolates; S. aureus BF1 (clinical isolate)): 0.5 µg/mL (≈ 0.345 µM) | MIC (S. aureus isolates; S. aureus BF2 (clinical isolate)): 2 µg/mL (≈ 1.38 µM) | MIC (S. aureus isolates; S. aureus BF3 (clinical isolate)): 1 µg/mL (≈ 0.69 µM) | MIC (S. aureus isolates; S. aureus BF4 (clinical isolate)): 2 µg/mL (≈ 1.38 µM) | MIC (S. aureus isolates; S. aureus BF5 (clinical isolate)): 1 µg/mL (≈ 0.69 µM) | MIC (S. aureus isolates; S. aureus BF6 (clinical isolate)): 1 µg/mL (≈ 0.69 µM) | MIC (S. aureus isolates; S. aureus BF7 (clinical isolate)): 1 µg/mL (≈ 0.69 µM) | MIC (S. aureus isolates; S. aureus BF8 (clinical isolate)): 2 µg/mL (≈ 1.38 µM) | MIC (S. aureus isolates; S. aureus BF9 (clinical isolate)): 0.5 µg/mL (≈ 0.345 µM) | MIC (S. aureus isolates; S. aureus BF10 (clinical isolate)): 2 µg/mL (≈ 1.38 µM) | MIC (S. aureus isolates; S. aureus BF11 (clinical isolate)): 2 µg/mL (≈ 1.38 µM) | MIC (S. aureus isolates; VISA, S. aureus AR0215 (VISA)): 2 µg/mL (≈ 1.38 µM) | MIC (S. aureus isolates; VISA, S. aureus AR0216 (VISA)): 4 µg/mL (≈ 2.76 µM) | MIC (S. aureus isolates; VISA, S. aureus AR0217 (VISA)): 2 µg/mL (≈ 1.38 µM) | MIC (S. aureus isolates; VISA, S. aureus AR0219 (VISA)): > 4 µg/mL | MIC (S. aureus isolates; VISA, S. aureus AR0225 (VISA)): 2 µg/mL (≈ 1.38 µM) | MIC (S. aureus isolates; VRSA, S. aureus VRS1 (VRSA)): > 4 µg/mL

H-GLFKVIKKLLKVI-NH2 [CIT-8]
Biofilm formation, biomass (crystal violet), percentage of untreated ([1]; 4 μg/ml, replicate 1): 54.1113 | Biofilm formation, live-cell viability (XTT), percentage of untreated ([1]; 4 μg/ml, replicate 1): 32.0317 | Biofilm formation, biomass (crystal violet), percentage of untreated ([1]; 4 μg/ml, replicate 2): 76.6895 | Biofilm formation, live-cell viability (XTT), percentage of untreated ([1]; 4 μg/ml, replicate 2): 22.3741 | Biofilm formation, biomass (crystal violet), percentage of untreated ([1]; 4 μg/ml, replicate 3): 101.649 | Biofilm formation, live-cell viability (XTT), percentage of untreated ([1]; 4 μg/ml, replicate 3): 54.6427 | Biofilm formation, biomass (crystal violet), percentage of untreated ([1]; 8 μg/ml, replicate 1): 13.6231 | Biofilm formation, live-cell viability (XTT), percentage of untreated ([1]; 8 μg/ml, replicate 1): -0.6814 | Biofilm formation, biomass (crystal violet), percentage of untreated ([1]; 8 μg/ml, replicate 2): 7.383 | Biofilm formation, live-cell viability (XTT), percentage of untreated ([1]; 8 μg/ml, replicate 2): -0.6073 | Biofilm formation, biomass (crystal violet), percentage of untreated ([1]; 8 μg/ml, replicate 3): 9.789 | Biofilm formation, live-cell viability (XTT), percentage of untreated ([1]; 8 μg/ml, replicate 3): -0.7036 | Biofilm formation, biomass (crystal violet), percentage of untreated ([1]; 16 μg/ml, replicate 1): 8.5978 | Biofilm formation, live-cell viability (XTT), percentage of untreated ([1]; 16 μg/ml, replicate 1): -0.7406 | Biofilm formation, biomass (crystal violet), percentage of untreated ([1]; 16 μg/ml, replicate 2): 7.669 | Biofilm formation, live-cell viability (XTT), percentage of untreated ([1]; 16 μg/ml, replicate 2): -0.7184 | Biofilm formation, biomass (crystal violet), percentage of untreated ([1]; 16 μg/ml, replicate 3): 8.622 | Biofilm formation, live-cell viability (XTT), percentage of untreated ([1]; 16 μg/ml, replicate 3): -0.5258 | Biofilm formation, biomass (crystal violet), percentage of untreated ([1]; 32 μg/ml, replicate 1): 7.502 | Biofilm formation, live-cell viability (XTT), percentage of untreated ([1]; 32 μg/ml, replicate 1): -0.6814 | Biofilm formation, biomass (crystal violet), percentage of untreated ([1]; 32 μg/ml, replicate 2): 7.074 | Biofilm formation, live-cell viability (XTT), percentage of untreated ([1]; 32 μg/ml, replicate 2): -0.6962 | Biofilm formation, biomass (crystal violet), percentage of untreated ([1]; 32 μg/ml, replicate 3): 7.812 | Biofilm formation, live-cell viability (XTT), percentage of untreated ([1]; 32 μg/ml, replicate 3): -0.5036 | Concentration killing 50% of biofilm cells during biofilm formation ([1]; XTT live-cell viability, 24 h): 4 µg/mL | MBIC50 (biomass reduced by 50%) ([1]; crystal violet, 24 h): 6 µg/mL | IL6 in murine skin (TNFA, IL6, MCP1; animal 1): 3.152 | MCP1 in murine skin (TNFA, IL6, MCP1; animal 1): 6.488 | TNFA in murine skin (TNFA, IL6, MCP1; animal 1): 126 | IL6 in murine skin (TNFA, IL6, MCP1; animal 2): 2.798 | MCP1 in murine skin (TNFA, IL6, MCP1; animal 2): 3.271 | TNFA in murine skin (TNFA, IL6, MCP1; animal 2): 153.385 | IL6 in murine skin (TNFA, IL6, MCP1; animal 3): 1.183 | MCP1 in murine skin (TNFA, IL6, MCP1; animal 3): 2.973 | TNFA in murine skin (TNFA, IL6, MCP1; animal 3): 114.591 | IL6 in murine skin (TNFA, IL6, MCP1; animal 4): 2.409 | MCP1 in murine skin (TNFA, IL6, MCP1; animal 4): 4.047 | TNFA in murine skin (TNFA, IL6, MCP1; animal 4): 182.154 | IL6 in murine skin (TNFA, IL6, MCP1; animal 5): 1.071 | MCP1 in murine skin (TNFA, IL6, MCP1; animal 5): 1.51 | TNFA in murine skin (TNFA, IL6, MCP1; animal 5): 103 | IL6 in murine skin (TNFA, IL6, MCP1; animal 6): 5.43 | MCP1 in murine skin (TNFA, IL6, MCP1; animal 6): 10.445 | TNFA in murine skin (TNFA, IL6, MCP1; animal 6): 372.2 | Reduction of IL6 level in skin (TNFA, IL6, MCP1; n = 6): 5 fold | Reduction of MCP1 level in skin (TNFA, IL6, MCP1; n = 6): 5 fold | Reduction of TNFA level in skin (TNFA, IL6, MCP1; n = 6): 2.5 fold
